Experimental data taken from US12508266B2 (priority 2010, dated 2025).
In brackets after ≈: the same amount, converted by molar mass.

System: A/NJ/15/2007 (H1N1-H274Y)
Assay type: cell-based, influenza

Structure (SMILES): Nc1ncnc2c([C@@H]3N[C@H](CO)[C@@H](O)[C@H]3O)c[nH]c12 [Compound 1, (2S,3S,4R,5R)-2-(4-Amino-5H-pyrrolo[3,2-d]pyrimidin-7-yl)-5-(hydroxymethyl) pyrrolidine-3,4-diol]
- EC50: 1.39 µg/mL (≈ 5.24 µM)
